{"source": "patent US20040265915A1", "about": "“Method to identify regulators of cellular activation using Bcl10” (priority 2003, published 2004)", "key": {"[1]": {"test_system": "Bcl10-YFP POLKADOTS formation", "assay": "Bcl10-YFP POLKADOTS formation in PMA-stimulated D10 T cells with cytoskeletal inhibitors", "type": "cell-based, murine", "conditions": "data not shown", "protocol": "(§1) To circumvent the problem that many cytoskeletal inhibitors also impair T cell/APC conjugate formation, D10 T cells were activated with phorbol ester (PMA), a stimulator of PKC. Specifically, in these experiments, D10 T cells infected with retroviruses encoding PKCθ-CFP and Bcl10-YFP received no pre-treatment, 2 hr pretreatment with 10 μg/ml nocodazole, or 1 hr pretreatment with 2 μg/ml latrunculin A. Cells then received either no treatment or were incubated for 20 min with 10 ng/ml PMA."}, "PKCθ-CFP": {"biological_target": "T1, PKCθ-CFP (Mus musculus, UniProt Q02111)", "T1 construct": "expressed in transfected cells; host or cells: D10 murine CD4+ T cell clone, infected with pEneo retrovirus", "T1 sequence (Q02111 whole entry, the tested form may be a part)": "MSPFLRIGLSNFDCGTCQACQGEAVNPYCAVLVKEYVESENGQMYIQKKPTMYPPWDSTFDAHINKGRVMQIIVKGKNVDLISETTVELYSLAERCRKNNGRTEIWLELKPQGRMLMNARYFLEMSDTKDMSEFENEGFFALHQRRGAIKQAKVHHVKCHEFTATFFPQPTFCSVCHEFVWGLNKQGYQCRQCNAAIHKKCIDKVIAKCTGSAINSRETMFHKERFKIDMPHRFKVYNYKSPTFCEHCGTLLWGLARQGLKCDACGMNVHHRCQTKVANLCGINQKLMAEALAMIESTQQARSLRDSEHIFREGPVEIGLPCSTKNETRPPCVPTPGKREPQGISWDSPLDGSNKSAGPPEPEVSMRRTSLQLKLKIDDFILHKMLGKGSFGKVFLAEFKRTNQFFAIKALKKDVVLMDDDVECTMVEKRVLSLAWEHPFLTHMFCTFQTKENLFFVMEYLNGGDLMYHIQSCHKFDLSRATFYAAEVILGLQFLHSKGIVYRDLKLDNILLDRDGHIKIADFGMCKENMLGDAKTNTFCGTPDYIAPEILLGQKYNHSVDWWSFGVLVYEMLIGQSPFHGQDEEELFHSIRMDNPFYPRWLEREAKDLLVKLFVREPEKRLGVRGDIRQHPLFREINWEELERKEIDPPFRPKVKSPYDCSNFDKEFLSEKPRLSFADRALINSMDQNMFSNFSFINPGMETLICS", "assay": "PKCθ-CFP translocation in D10 T cells, fluorescence microscopy", "type": "cell-based, murine", "protocol": "(§2) Murine PKCθ was fused to a C-terminal linker (GRVELGR; SEQ ID NO:7) followed by GFP or CFP (19), modified by mutations that improve folding at 37° C. (20). Two I.M.A.G.E. expressed sequence tag (EST) clones encoding murine Bcl10 were purchased (2123397 and 3026026; ResGen). Clone 3026026 was used for PCR amplification of Bc 10, adding the C-terminal linker GR, which was then fused to the previously described modified YFP gene (17). The PKCθ-CFP and Bcl10-YFP gene fusions were cloned into the retroviral vectors pEneo and pEhyg (21), respectively. Retroviral infection and cell line production were as described (17).\nas §1\n(§3) CH12 B cells that had been pre-incubated with no antigen or with 250 μg/ml conalbumin protein were then added. Cells were fixed after 30 min and examined by fluorescence microscopy. […]"}, "microtubules": {"test_system": "microtubules", "assay": "Microtubule integrity (tubulin distribution) in PMA-stimulated D10 T cells", "type": "cell-based, murine", "conditions": "2 hr pretreatment with 10 μg/ml nocodazole, then 10 ng/ml PMA 20 min", "protocol": "as §1"}, "[2]": {"test_system": "Bcl10-YFP POLKADOTS formation", "assay": "Bcl10-YFP POLKADOTS formation in antigen-stimulated D10 T cells, fluorescence microscopy", "type": "cell-based, murine", "conditions": "bisindo 2 μM, stauro 100 nM; for Bcl10-YFP POLKADOTS formation: D10 T cells expressing Bcl10-YFP, conalbumin-loaded CH12 B cells (100 μg/ml), 30 min pre-treatment, fixed after 20 min, FIG. 4; for Bcl10 POLKADOTS formation: D10 T cells expressing PKCθ-CFP and Bcl10-YFP, CH12 B cells with 250 μg/ml conalbumin, 30 min pretreatment, fixed after 30 min, FIG. 5", "protocol": "(§4) D10-IL2 (henceforth referred to as D10) is an IL-2 dependent subclone of the CD4^+ T cell clone D10 (16), maintained as described (17). Primary T cell blasts were prepared by stimulation of spleen and lymph node cells with 100 μg/ml plate-bound anti-TCRP for 48 hr, with IL-2 added for the final 24 hr of stimulation. CH12H-2^k B cells and CHb H-2^b B cells (18) were maintained as described previously (17).\nas §2\nFluorescent and Nomarski images were acquired on an Olympus IX70 inverted microscope (Olympus America, Inc.) or a Zeiss Axiovert 200M inverted microscope (Carl Zeiss, Inc.) using a 100× plan-apochromat oil objective. The microscope was controlled by a TILLvisTRAC imaging system, driven by TILLvisION 4.0 software (TILL Photonics, GmbH). Excitation light was provided by a Polychrome IV monochromator (TILL Photonics, GmbH). Dichroic mirrors and excitation filters appropriate for each fluorophore were purchased from Chroma.\nFor fixed cell imaging, T cell conjugates were formed, mounted on coverslips, paraformaldehyde fixed, and stained with fluorophore-conjugated antibodies (Molecular Probes, Inc.) as described previously (16). For each fluorescent wavelength, z-stacks of 50 xy-planes separated by 0.3 μm were acquired, and stacks were digitally deconvolved using a constrained-iterative algorithm. TILLvisION software was used to convert z-stacks into xy projection images, by retaining only the maximal pixel value for each xy coordinate across the z-dimension.\nThe inventors next examined whether formation of Bcl10 POLKADOTS is PKC-dependent (FIG. 4 and FIG. 5). D10 T cells expressing Bcl10-YFP were incubated with CH12 B cells with no antigen, or with conalbumin-loaded CH12 B cells (100 μg/ml conalbumin). […] Cells were fixed after 20 minutes and examined by fluorescence microscopy. For each group, >200 T cells were counted, and percentages with and without POLKADOTS were determined.\nas §3"}, "[3]": {"test_system": "Bcl10-YFP phosphorylation", "assay": "Western blot of TCR-dependent Bcl10-YFP phosphorylation in D10 T cells", "type": "cell-based, murine", "conditions": "anti-TCR stimulation, 30 min pre-treatment with 2 μM, data not shown", "protocol": "(§5) T cells were stimulated with 100 μg/ml plate-bound anti-TCRP. Cell lysates were prepared on ice using 1× Laemmli buffer, followed by sonication. For immunoprecipitations, 5×10^6 cells were lysed for 1 hr on ice in 360 μL of a buffer consisting of 0.5% NP40, 0.5% deoxcholate, 20 mM Tris, pH 7.6, 250 mM NaCl, 3 mM EDTA, 3 mM EGTA, 1 mM PMSF, 20 μg/ml aprotinin, 100 μg/ml leupeptin, 1 mM Na3VO4, 10 mM NaF, and 1 mM DTT. Nuclei were removed by centrifugation, and lysates were incubated with polyclonal rabbit anti-Bcl10 antibody (Santa Cruz Biotechnology) for 2-3 hr at 4° C. and then for 1 hr at 4° C. with Protein A sepharose. Lysates and immunoprecipitates were separated by SDS-PAGE and blotted onto nitrocellulose. Proteins were detected by monoclonal antibodies against Bcl10 (Santa Cruz Biotechnology), and PKCθ (BD/Translabs), and polyclonal antibodies against phospho-IκBα anti-phospho-PKCθ/Thr538 (Cell Signaling Technologies), and actin (Santa Cruz Biotechnology). For phosphatase treatment, immunoprecipitates were incubated for 45 min at 30° C. with 400 U of λ-phosphatase (New England Biolabs), according to the instructions of the manufacturer.\nThe inventors next investigated whether Bcl10 redistribution reflects biochemical modification of Bcl10. […]"}, "[4]": {"test_system": "NF-κB activation (phosphorylation of IκBα)", "assay": "NF-κB activation assessed by phosphorylation of IκBα in anti-TCR stimulated D10 T cells", "type": "cell-based, murine", "conditions": "anti-TCR stimulation, 30 min pre-treatment with 2 μM, data not shown", "protocol": "as §5, with “manufacturer. […]” for “manufacturer.”"}, "ERK MAP kinases": {"test_system": "ERK MAP kinases", "assay": "Activation of ERK MAP kinases in anti-TCR stimulated D10 T cells", "type": "cell-based, murine", "conditions": "anti-TCR stimulation, 30 min pre-treatment with 2 μM"}, "Bcl10": {"test_system": "Bcl10", "assay": "Endogenous Bcl10 enrichment at the T cell/APC interface in OTII T cell blasts, immunofluorescence microscopy", "type": "cell-based, mice", "conditions": "45 min with CHb APC loaded with 10 μg/ml OVA 323-339, FIG. 1B", "protocol": "as §4\nFor fixed cell imaging, T cell conjugates were formed, mounted on coverslips, paraformaldehyde fixed, and stained with fluorophore-conjugated antibodies (Molecular Probes, Inc.) as described previously (16). […]\nThe inventors sought to establish whether Bcl10, like PKCθ, might be recruited to the c-SMAC in response to specific antigen-loaded APC. […] T cell/APC conjugates were detected by immunofluorescence microscopy, using monoclonal antibodies directed against Bcl10, PKCθ and CD4 (FIG. 1A). […]\nIn contrast, in T cells stimulated by specific antigen-loaded CHb APC, PKCθ became enriched at the region of contact between the T cell and the APC. […] The mean maximal anti-Bcl10 fluorescence intensity of the enriched regions of the antigen-stimulated T cells was 7-fold higher than the maximal T cell anti-Bcl10 fluorescence of the no antigen controls (FIG. 1B; error bars representing SEM)."}}, "data": [{"compound": "CCCCCCCCCCCCCC(=O)O[C@@H]1[C@@H](C)[C@@]2(O)[C@@H](C=C(CO)C[C@]3(O)C(=O)C(C)=C[C@@H]23)[C@@H]2C(C)(C)[C@]12OC(C)=O", "note": "[PMA]", "values": [{"measurement": "Bcl10-YFP POLKADOTS on PMA stimulation", "setting": "[1]; D10 T cells expressing PKCθ-CFP and Bcl10-YFP, 10 ng/ml PMA for 20 min", "result": "formation of Bcl10-YFP POLKADOTS"}, {"measurement": "PKCθ-CFP translocation on PMA stimulation", "setting": "PKCθ-CFP; 10 ng/ml PMA for 20 min, data not shown", "result": "translocation of PKCθ-CFP to the cell membrane"}]}, {"compound": "COC(=O)Nc1nc2ccc(C(=O)c3cccs3)cc2[nH]1", "note": "[nocodazole]", "values": [{"measurement": "microtubules (distribution of tubulin)", "setting": "microtubules", "result": "disrupted"}]}, {"compound": "C/C1=C/C(=O)O[C@@H]2C[C@@H](CC[C@H](C)/C=C\\C=C\\CC1)O[C@@](O)([C@@H]1CSC(=O)N1)C2", "note": "[latrunculin A]", "values": [{"measurement": "levels of Bcl10-YFP POLKADOTS after cytoskeletal inhibitor pretreatment", "setting": "[1]; 1 hr pretreatment with 2 μg/ml latrunculin A, then 10 ng/ml PMA 20 min", "result": "did not appear to have reduced levels"}]}, {"compound": "bisindolylmaleimide", "values": [{"measurement": "Bcl10-YFP POLKADOTS formation", "setting": "[2]", "result": "blocked"}, {"measurement": "Bcl10 POLKADOTS formation", "setting": "[2]", "result": "blocked"}, {"measurement": "formation of phosphorylated Bcl10-YFP", "setting": "[3]", "result": "completely blocked"}, {"measurement": "activation of NF-κB (phosphorylation of IκBα)", "setting": "[4]", "result": "blocked"}, {"measurement": "activation of the ERK MAP kinases", "setting": "ERK MAP kinases", "result": "partially inhibited"}, {"measurement": "PKCθ translocation in presence of PKC inhibitors", "setting": "PKCθ-CFP; CH12 B cells with 250 μg/ml conalbumin, 30 min pretreatment, bisindo 2 μM, stauro 100 nM, FIG. 5", "result": "occurs"}]}, {"compound": "CN[C@@H]1C[C@H]2O[C@@](C)([C@@H]1OC)n1c3ccccc3c3c4c(c5c6ccccc6n2c5c31)C(=O)NC4", "note": "[stauro, staurosporine]", "values": [{"measurement": "Bcl10-YFP POLKADOTS formation", "setting": "[2]", "result": "blocked"}, {"measurement": "Bcl10 POLKADOTS formation", "setting": "[2]", "result": "blocked"}]}, {"compound": "ovalbumin: ovalbumin peptide OVA 323-339 bound to IA^b, antigen for OTII T cells (KISQAVHAAHAEINEAG; UniProt P01012 323-339, looked up, fragment)", "values": [{"measurement": "mean maximal anti-Bcl10 fluorescence intensity of enriched regions relative to no antigen controls", "setting": "Bcl10", "result": 7, "unit": "fold"}]}]}
